Test results published in US20250223281A1, “ANTIDIABETIC COMPOUNDS AND COMPOSITIONS” (REZUBIO PHARMACEUTICALS CO., LTD, priority 2022, published 2025).
pEC50: −log10 of the molar value.

Target: T1, GPR40 (Homo sapiens, UniProt O14842)
T1 construct: expressed in transfected cells; host or cells: HEK293 cells stably expressing GPR40 (Hygromycin selection)
Assay: IP1 accumulation assay in HEK293 cells stably expressing GPR40
Format: cell-based
Experimental: IP1 accumulation assay was used to evaluate the potency of compounds. HEK293 cells stably expressing GPR40 were cultured in 5% CO2 incubator (ThermoFisher) in maintenance media (Dulbecco's modified Eagle's medium with 4.5 g/L of glucose, 10% fetal bovine serum, 100 μg/mL Hygromycin, and Penicillin (100 U/mL)/Streptomycin (100 μg/mL)) till 100% confluency. Cells were harvested freshly, spun down at 300×g for 5 min, and resuspended in pre-warmed 1× stimulant buffer from Cisbio IP-One HTRF Detection kit (Cisbio). Cell density was adjusted to 2.0×10^6 cells/mL. DMSO was used as blank control and AMG-1638 (CAS #: 1142214-62-7) as positive control. Compounds were prepared at 10 mM in DMSO and 5 nL of 3× serially diluted compounds (10 concentrations) were added to each well of the 384-LDV assay plate (Corning) by using ECHO 550 (Labcyte). Five μL of cells in suspension were transferred into each well by using Multidrop Combi Reagent Dispenser (ThermoFisher). Assay plate was then sealed and incubated at 37° C. for 2 hours. IP-d2 reagent and anti-IP1 reagent were prepared following the manual (Cisbio). Five μL of IP1-d2 and then 5 μL of anti-IP1 antibody was added to each well sequentially. Assay plate was incubated at room temperature for 60 min and then read at 665 nm/615 nm on an Envision plate reader (PerkinElmer). The ratio of values obtained at 665 nm and 615 nm was used for calculation of IP1 accumulation: % Effect=(Ratiosample−Ratioblank)/(RatioAMG-1638−Ratioblank)×100. Dose curve was fitted and EC50 of each compound was calculated by using XLFit.

[1] = IP1 accumulation, HEK293 cells stably expressing GPR40, 2 hours at 37° C., % effect relative to AMG-1638, table of Biological Example 1
[2] = Table A-8 (additional examples), obtained by methods of Biological Example 1
[3] = Tables A-1a to A-7b (structure-property relationship), obtained by methods of Biological Example 1

T1 sequence (O14842 whole entry): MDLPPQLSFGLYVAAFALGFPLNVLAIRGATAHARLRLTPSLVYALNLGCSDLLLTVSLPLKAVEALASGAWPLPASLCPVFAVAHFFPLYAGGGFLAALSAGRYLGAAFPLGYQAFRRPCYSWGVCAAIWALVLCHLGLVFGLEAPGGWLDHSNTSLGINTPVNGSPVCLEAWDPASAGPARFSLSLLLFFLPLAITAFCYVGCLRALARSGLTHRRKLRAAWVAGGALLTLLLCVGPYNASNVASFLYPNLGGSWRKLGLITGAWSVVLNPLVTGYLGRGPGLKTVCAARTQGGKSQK

pEC50 [1]	pEC50 [2]	pEC50 [3]	SMILES
8.26	8.26	8.26	C[C@H](C(=O)O)[C@H](c1ccc2c(c1)O[C@@H](C1CCN(Cc3cc(-n4cc(CCCCCCCCCCCCC(=O)NCCN(CCC(=O)NCCN)CCC(=O)NCCN)nn4)ccc3OC(F)(F)F)CC1)CC2)C1CC1 [Example 1, (2S,3R)-3-((R)-2-(1-(5-(4-(13-((2-(bis(3-((2-aminoethyl)amino)-3-oxopropyl)amino)ethyl)amino)-13-oxotridecyl)-1H-1,2,3-triazol-1-yl)-2-(trifluoromethoxy)benzyl)piperidin-4-yl)chroman-7-yl)-3-cyclopropyl-2-methylpropanoic acid]
8.02	8.02	8.02	C[C@H](C(=O)O)[C@H](c1ccc2c(c1)O[C@@H](C1CCN(Cc3cc(-n4cc(CCCCCCCCCCCCC(=O)NCC[N+](C)(CCC(=O)NCCN)CCC(=O)NCCN)nn4)ccc3OC(F)(F)F)CC1)CC2)C1CC1 [Example 2]
8.96		8.96	C[C@H](C(=O)O)[C@H](c1ccc2c(c1)O[C@@H](C1CCN(Cc3cc(-n4cc(CCCCCCCCCCCCCCCCCC(=O)NCCN(CCC(=O)NCCN)CCC(=O)NCCN)nn4)ccc3OC(F)(F)F)CC1)CC2)C1CC1 [Example 3]
9.51		9.51	C[C@H](C(=O)O)[C@H](c1ccc2c(c1)O[C@@H](C1CCN(Cc3cc(-n4cc(CCCCCCCCCCCCCCCCCC(=O)NCC[N+](C)(CCC(=O)NCCN)CCC(=O)NCCN)nn4)ccc3OC(F)(F)F)CC1)CC2)C1CC1 [Example 4]
7.82		7.82	C[C@H](C(=O)O)[C@H](c1ccc2c(c1)O[C@@H](C1CCN(Cc3cc(-c4cn(CCCCCCCCCCCCCC(=O)NCCN(CCC(=O)NCCN)CCC(=O)NCCN)nn4)ccc3OC(F)(F)F)CC1)CC2)C1CC1 [Example 5]
8.92		8.92	C[C@H](C(=O)O)[C@H](c1ccc2c(c1)O[C@@H](C1CCN(Cc3cc(-c4cn(CCCCCCCCCCCCCCCCCC(=O)NCCN(CCC(=O)NCCN)CCC(=O)NCCN)nn4)ccc3OC(F)(F)F)CC1)CC2)C1CC1 [Example 6]
9.19		9.19	C[C@H](C(=O)O)[C@H](c1ccc2c(c1)O[C@@H](C1CCN(Cc3cc(-c4cn(CCCCCCCCCCCCCCCCCC(=O)NCC[N+](C)(CCC(=O)NCCN)CCC(=O)NCCN)nn4)ccc3OC(F)(F)F)CC1)CC2)C1CC1 [Example 7]
7.69			COc1ccc(F)c(-c2ccc(COc3cccc([C@@H](CC(=O)O)C4CC4)c3)cc2C(C)(C)c2cn(CCCCCCCCCCCCCCCCCC(=O)NCC[N+](C)(CCC(=O)NCCN)CCC(=O)NCCN)nn2)c1 [Example 11]
7.23			COc1ccc(F)c(-c2ccc(COc3cccc([C@@H](CC(=O)O)C4CC4)c3)cc2C(OC)C(C)(C)Cn2cc(CCCCCCCCCCCCCCCCCC(=O)NCC[N+](C)(CCC(=O)NCCN)CCC(=O)NCCN)nn2)c1 (stereo partly shown) [Example 15]
8.78		8.78	COc1ccc(F)c(-c2ccc(COc3cccc([C@@H](CC(=O)O)C4CC4)c3)cc2CC(C)(C)Cn2cc(CCCCCCCCCCCCCCCCCC(=O)NCC[N+](C)(CCC(=O)NCCN)CCC(=O)NCCN)nn2)c1 [Example 19]
8.69		8.69	COc1ccc(F)c(-c2ccc(COc3cccc([C@@H](CC(=O)O)C4CC4)c3)cc2CC(C)(C)Cc2cn(CCCCCCCCCCCCCCCCCC(=O)NCC[N+](C)(CCC(=O)NCCN)CCC(=O)NCCN)nn2)c1 [Example 24]
8.32			COc1ccc(F)c(-c2ccc(COc3cccc([C@@H](CC(=O)O)C4CC4)c3)cc2OC(C)(C)COCc2cn(CCCCCCCCCCCCCCCCCC(=O)NCC[N+](C)(CCC(=O)NCCN)CCC(=O)NCCN)nn2)c1 [Example 28]

The next lines start with the molecule.

SMILES	pEC50 [1]	pEC50 [2]	pEC50 [3]
COc1ccc(F)c(-c2ccc(COc3cccc([C@@H](CC(=O)O)C4CC4)c3)cc2C(C)(C)c2cn(CCCCCCCCCCCCCC(=O)NCCN(CCC(=O)NCCN)CCC(=O)NCCN)nn2)c1 [Example 8]	< 6.00		
COc1ccc(F)c(-c2ccc(COc3cccc([C@@H](CC(=O)O)C4CC4)c3)cc2C(C)(C)c2cn(CCCCCCCCCCCCCC(=O)NCC[N+](C)(CCC(=O)NCCN)CCC(=O)NCCN)nn2)c1 [Example 9]	6.19		
COc1ccc(F)c(-c2ccc(COc3cccc([C@@H](CC(=O)O)C4CC4)c3)cc2C(C)(C)c2cn(CCCCCCCCCCCCCCCCCC(=O)NCCN(CCC(=O)NCCN)CCC(=O)NCCN)nn2)c1 [Example 10]	7.49		
COc1ccc(F)c(-c2ccc(COc3cccc([C@@H](CC(=O)O)C4CC4)c3)cc2C(OCCCCCn2cc(CCCCCCCCCCCCCCCCCC(=O)NCCN(CCC(=O)NCCN)CCC(=O)NCCN)nn2)C(C)(C)C)c1 (stereo partly shown) [Example 12]	8.95		
COc1ccc(F)c(-c2ccc(COc3cccc([C@@H](CC(=O)O)C4CC4)c3)cc2C(OC)C(C)(C)Cn2cc(CCCCCCCCCCCCCCCCCC(=O)NCCN(CCC(=O)NCCN)CCC(=O)NCCN)nn2)c1 (stereo partly shown) [Example 14]	8.06		
COc1ccc(F)c(-c2ccc(COc3cccc([C@@H](CC(=O)O)C4CC4)c3)cc2CC(C)(C)Cn2cc(CCCCCCCCCCCCC(=O)NCCN(CCC(=O)NCCN)CCC(=O)NCCN)nn2)c1 [Example 16]	6.34	6.15	6.34
COc1ccc(F)c(-c2ccc(COc3cccc([C@@H](CC(=O)O)C4CC4)c3)cc2CC(C)(C)Cn2cc(CCCCCCCCCCCCC(=O)NCC[N+](C)(CCC(=O)NCCN)CCC(=O)NCCN)nn2)c1 [Example 17]	6.82	6.77	6.82
COc1ccc(F)c(-c2ccc(COc3cccc([C@@H](CC(=O)O)C4CC4)c3)cc2CC(C)(C)Cn2cc(CCCCCCCCCCCCCCCCCC(=O)NCCN(CCC(=O)NCCN)CCC(=O)NCCN)nn2)c1 [Example 18]	8.65		8.65
COc1ccc(F)c(-c2ccc(COc3cccc([C@@H](CC(=O)O)C4CC4)c3)cc2CC(C)(C)Cc2cn(CCCCCCCCCCCCCC(=O)NCCN(CCC(=O)NCCN)CCC(=O)NCCN)nn2)c1 [Example 21]	7.31		7.31
COc1ccc(F)c(-c2ccc(COc3cccc([C@@H](CC(=O)O)C4CC4)c3)cc2CC(C)(C)Cc2cn(CCCCCCCCCCCCCC(=O)NCC[N+](C)(CCC(=O)NCCN)CCC(=O)NCCN)nn2)c1 [Example 22]	7.31		7.31
COc1ccc(F)c(-c2ccc(COc3cccc([C@@H](CC(=O)O)C4CC4)c3)cc2CC(C)(C)Cc2cn(CCCCCCCCCCCCCCCCCC(=O)NCCN(CCC(=O)NCCN)CCC(=O)NCCN)nn2)c1 [Example 23]	9.02		9.02
COc1ccc(F)c(-c2ccc(COc3cccc([C@@H](CC(=O)O)C4CC4)c3)cc2OC(C)(C)COCc2cn(CCCCCCCCCCCCCC(=O)NCCN(CCC(=O)NCCN)CCC(=O)NCCN)nn2)c1 [Example 25]	6.88		
COc1ccc(F)c(-c2ccc(COc3cccc([C@@H](CC(=O)O)C4CC4)c3)cc2OC(C)(C)COCc2cn(CCCCCCCCCCCCCC(=O)NCC[N+](C)(CCC(=O)NCCN)CCC(=O)NCCN)nn2)c1 [Example 26]	7.12		
COc1ccc(F)c(-c2ccc(COc3cccc([C@@H](CC(=O)O)C4CC4)c3)cc2OC(C)(C)COCc2cn(CCCCCCCCCCCCCCCCCC(=O)NCCN(CCC(=O)NCCN)CCC(=O)NCCN)nn2)c1 [Example 27]	8.27		
COc1ccc(F)c(-c2ccc(COc3cccc([C@@H](CC(=O)O)C4CC4)c3)cc2OC(C)(C)Cn2cc(CCCCCCCCCCCCC(=O)NCCN(CCC(=O)NCCN)CCC(=O)NCCN)nn2)c1 [Example 29]	< 6.00		
